Assay [1] deals with hardwood trees. The assay can be described thus: Growth Response for Pre-Plant Treatments (Example 7), summary over treated species. Format: in vivo. The conditions noted are these: pre-plant (Table 7); all treated species, with the exceptions of chestnut oak and Chinese chestnut. Here is the method: (§1) Hybrid poplar seedlings were planted as stem cuttings.
(§2) Stem volume index is calculated as D^2H where D=groundline stem diameter and H=total height.

Assay [2] has as its system hardwood trees. Description: Growth Response for Post-Plant Treatments (Example 8), summary over treated species. Format: in vivo. The note with it: post-plant (Table 8); all treated species except for Chinese chestnut. Here is the method:
as §1, §2

Turning to `Cc1ccc2c(c1)[C@H](Nc1nc(N)nc(C(C)F)n1)[C@@H](C)C2` (mixture of isomers) [indaziflam, N2-[(1R,2S)-2,3-dihydro-2,6-dimethyl-1H-inden-1-yl]-6-[(1RS)-1-fluoroethyl]-1,3,5-triazine-2,4-diamine], the growth response entry in assay [1] and in assay [2] was “positive growth response” each time.
